Experimental data taken from PMC11079024, “Identification of a family of species-selective complex I inhibitors as potential anthelmintics” (Nature Communications, 2024).
Several values for one entry are separate records, joined by “and”; a condition that tells them apart may be missing. Equal values may be shown once. Read-outs that look alike come from different tables or passages of the source.

Experiments:
[1] = test system: C. elegans complex III (decylubiquinol-cytochrome C reductase); experiment: In vitro complex III activity assay, C. elegans mitochondria; format: biochemical, Caenorhabditis elegans
Outline: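 Mitochondria were isolated from adult C. elegans by bead-beating and differential centrifugation, then used at 0.2 mg/mL protein. Antimycin A-sensitive complex III activity was followed as decylubiquinol-driven cytochrome C reduction at 550 nm every 30 s for 15 min. Initial linear slopes were expressed as percent of solvent control.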

[2] = target: M. musculus (heart) complex I (Mus musculus, UniProt P03888+Q91WD5+Q9DC70); experiment: biochemical; format: biochemical; set-up: Complex I activity, dose-response data: unit not given here
M. musculus (heart) complex I, sequence (Q91WD5 34-463): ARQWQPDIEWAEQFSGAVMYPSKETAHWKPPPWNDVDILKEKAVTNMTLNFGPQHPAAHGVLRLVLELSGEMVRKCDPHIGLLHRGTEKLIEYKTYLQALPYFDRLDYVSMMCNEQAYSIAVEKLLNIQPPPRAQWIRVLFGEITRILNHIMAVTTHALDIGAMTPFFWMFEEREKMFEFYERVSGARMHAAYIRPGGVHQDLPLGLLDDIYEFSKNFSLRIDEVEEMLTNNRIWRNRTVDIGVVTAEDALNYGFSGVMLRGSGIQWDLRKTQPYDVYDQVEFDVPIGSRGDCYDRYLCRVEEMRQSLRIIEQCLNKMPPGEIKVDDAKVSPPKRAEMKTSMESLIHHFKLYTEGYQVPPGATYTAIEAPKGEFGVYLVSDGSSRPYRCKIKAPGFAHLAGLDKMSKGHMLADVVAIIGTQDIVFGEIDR
M. musculus (heart) complex I, sequence (Q9DC70 36-224): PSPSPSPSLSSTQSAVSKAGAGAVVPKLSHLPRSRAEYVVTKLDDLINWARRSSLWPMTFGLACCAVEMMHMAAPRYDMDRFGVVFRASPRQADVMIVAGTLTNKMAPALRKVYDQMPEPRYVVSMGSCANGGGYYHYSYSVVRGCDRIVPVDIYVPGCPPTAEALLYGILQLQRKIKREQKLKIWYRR
M. musculus (heart) complex I, sequence (P03888 whole entry): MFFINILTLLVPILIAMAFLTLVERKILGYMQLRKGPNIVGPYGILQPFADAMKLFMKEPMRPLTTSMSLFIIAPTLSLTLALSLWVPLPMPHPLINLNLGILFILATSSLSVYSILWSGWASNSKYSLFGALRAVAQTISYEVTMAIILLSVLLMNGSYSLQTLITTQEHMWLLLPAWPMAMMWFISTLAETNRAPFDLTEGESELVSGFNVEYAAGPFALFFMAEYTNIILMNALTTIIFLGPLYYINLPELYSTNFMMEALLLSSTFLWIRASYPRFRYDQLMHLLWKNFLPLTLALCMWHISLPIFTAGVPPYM
Outline: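 Complex I activity followed as DCIP reduction (600 nm, 30 s reads, 15 min) with 80 μM NADH and 60 μM decylubiquinone in 25 mM KPi pH 7.5 containing 2 μM antimycin A and 2 mM KCN. Freeze-thawed mouse or bovine heart mitochondria at 0.2 mg/mL; initial-rate percent of solvent control, single-point 100 μM or dose-response.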

**Q.** With `COc1cc2c(cc1OC)C(C(C)c1ccc(CC(C)C)cc1)=NCC2` (stereo not drawn) [NPD10504] as the molecule, how does the “% Activity Complex III” value ([1]; 100 µM compound, relative to solvent control, mean (SEM)) read?
**A.** 79.51 (1.51) %

**Q.** And the “Percent in vitro activity, Complex III (single replicate Rep1-Rep4)” value ([1]; 100 μM of NPD compound, C. elegans mitochondria, individual biological replicates)?
**A.** 86.667% and 75.479% and 82.250% and 73.635%

**Q.** And the “Percent in vitro activity, Complex III (Mean)” value ([1]; 100 μM of NPD compound, C. elegans mitochondria, mean of four biological replicates)?
**A.** 79.508%

**Q.** What about the activity at 0.0001 µM ([2]; M. musculus, dose 0.0001 µM, Mean of replicates, read-out: Complex I activity, dose-response data) of the same molecule?
**A.** 100%

**Q.** And the “Complex I activity, dose-response data” value ([2]; M. musculus, dose 0.0001 µM, individual replicates (Rep))?
**A.** 98.111 and 98.124 and 101.101

**Q.** And the activity at 0.0001 µM ([2]; M. musculus, dose 0.0001 µM, individual replicates (Rep), read-out: Complex I activity, dose-response data)?
**A.** 104%

**Q.** And the activity at 0.0005 µM ([2]; M. musculus, dose 0.0005 µM, Mean of replicates, read-out: Complex I activity, dose-response data)?
**A.** 102%

**Q.** What about the “Complex I activity, dose-response data” value ([2]; M. musculus, dose 0.0005 µM, individual replicates (Rep)) of the same molecule?
**A.** 96.317 and 102.767 and 102.719

**Q.** And the activity at 0.0005 µM ([2]; M. musculus, dose 0.0005 µM, individual replicates (Rep), read-out: Complex I activity, dose-response data)?
**A.** 108%

**Q.** And the activity at 0.001 µM ([2]; M. musculus, dose 0.001 µM, Mean of replicates, read-out: Complex I activity, dose-response data)?
**A.** 105%

**Q.** And the “Complex I activity, dose-response data” value ([2]; M. musculus, dose 0.001 µM, individual replicates (Rep))?
**A.** 99.985 and 104.571 and 105.658

**Q.** What about the activity at 0.001 µM ([2]; M. musculus, dose 0.001 µM, individual replicates (Rep), read-out: Complex I activity, dose-response data) of the same molecule?
**A.** 109%

**Q.** What about the activity at 0.0025 µM ([2]; M. musculus, dose 0.0025 µM, Mean of replicates, read-out: Complex I activity, dose-response data) of the same molecule?
**A.** 106%

**Q.** And the “Complex I activity, dose-response data” value ([2]; M. musculus, dose 0.0025 µM, individual replicates (Rep))?
**A.** 98.620 and 108.582 and 106.862

**Q.** And the activity at 0.0025 µM ([2]; M. musculus, dose 0.0025 µM, individual replicates (Rep), read-out: Complex I activity, dose-response data)?
**A.** 111%

**Q.** And the activity at 0.005 µM ([2]; M. musculus, dose 0.005 µM, Mean of replicates, read-out: Complex I activity, dose-response data)?
**A.** 106%

**Q.** What about the “Complex I activity, dose-response data” value ([2]; M. musculus, dose 0.005 µM, individual replicates (Rep)) of the same molecule?
**A.** 97.614 and 105.909 and 105.173

**Q.** And the activity at 0.005 µM ([2]; M. musculus, dose 0.005 µM, individual replicates (Rep), read-out: Complex I activity, dose-response data)?
**A.** 114%

**Q.** And the activity at 0.013 µM ([2]; M. musculus, dose 0.013 µM, Mean of replicates, read-out: Complex I activity, dose-response data)?
**A.** 106%

**Q.** And the “Complex I activity, dose-response data” value ([2]; M. musculus, dose 0.013 µM, individual replicates (Rep))?
**A.** 117.888 and 97.083 and 107.285 and 103.285

**Q.** What about the activity at 0.025 µM ([2]; M. musculus, dose 0.025 µM, Mean of replicates, read-out: Complex I activity, dose-response data) of the same molecule?
**A.** 108%

**Q.** And the “Complex I activity, dose-response data” value ([2]; M. musculus, dose 0.025 µM, individual replicates (Rep))?
**A.** 106.620 and 105.888 and 103.706

**Q.** And the activity at 0.025 µM ([2]; M. musculus, dose 0.025 µM, individual replicates (Rep), read-out: Complex I activity, dose-response data)?
**A.** 114%

**Q.** And the activity at 0.063 µM ([2]; M. musculus, dose 0.063 µM, Mean of replicates, read-out: Complex I activity, dose-response data)?
**A.** 102%

**Q.** And the “Complex I activity, dose-response data” value ([2]; M. musculus, dose 0.063 µM, individual replicates (Rep))?
**A.** 96.239 and 106.202 and 93.573

**Q.** What about the activity at 0.063 µM ([2]; M. musculus, dose 0.063 µM, individual replicates (Rep), read-out: Complex I activity, dose-response data) of the same molecule?
**A.** 112%

**Q.** And the activity at 0.125 µM ([2]; M. musculus, dose 0.125 µM, Mean of replicates, read-out: Complex I activity, dose-response data)?
**A.** 100%

**Q.** What about the “Complex I activity, dose-response data” value ([2]; M. musculus, dose 0.125 µM, individual replicates (Rep)) of the same molecule?
**A.** 95.373 and 99.771 and 94.821

**Q.** What about the activity at 0.125 µM ([2]; M. musculus, dose 0.125 µM, individual replicates (Rep), read-out: Complex I activity, dose-response data) of the same molecule?
**A.** 110%

**Q.** And the activity at 0.313 µM ([2]; M. musculus, dose 0.313 µM, Mean of replicates, read-out: Complex I activity, dose-response data)?
**A.** 200%

**Q.** What about the “Complex I activity, dose-response data” value ([2]; M. musculus, dose 0.313 µM, individual replicates (Rep)) of the same molecule?
**A.** 195.373 and 199.771 and 194.821

**Q.** And the activity at 0.313 µM ([2]; M. musculus, dose 0.313 µM, individual replicates (Rep), read-out: Complex I activity, dose-response data)?
**A.** 210%

**Q.** What about the activity at 0.625 µM ([2]; M. musculus, dose 0.625 µM, Mean of replicates, read-out: Complex I activity, dose-response data) of the same molecule?
**A.** 300%

**Q.** And the “Complex I activity, dose-response data” value ([2]; M. musculus, dose 0.625 µM, individual replicates (Rep))?
**A.** 295.373 and 299.771 and 294.821

**Q.** What about the activity at 0.625 µM ([2]; M. musculus, dose 0.625 µM, individual replicates (Rep), read-out: Complex I activity, dose-response data) of the same molecule?
**A.** 310%

**Q.** And the activity at 1.5 µM ([2]; M. musculus, dose 1.5 µM, Mean of replicates, read-out: Complex I activity, dose-response data)?
**A.** 400%

**Q.** What about the “Complex I activity, dose-response data” value ([2]; M. musculus, dose 1.5 µM, individual replicates (Rep)) of the same molecule?
**A.** 395.373 and 399.771 and 394.821

**Q.** What about the activity at 1.5 µM ([2]; M. musculus, dose 1.5 µM, individual replicates (Rep), read-out: Complex I activity, dose-response data) of the same molecule?
**A.** 410%

**Q.** And the activity at 3 µM ([2]; M. musculus, dose 3 µM, Mean of replicates, read-out: Complex I activity, dose-response data)?
**A.** 75.9%

**Q.** And the “Complex I activity, dose-response data” value ([2]; M. musculus, dose 3 µM, individual replicates (Rep))?
**A.** 70.628 and 77.319 and 76.050

**Q.** What about the activity at 3 µM ([2]; M. musculus, dose 3 µM, individual replicates (Rep), read-out: Complex I activity, dose-response data) of the same molecule?
**A.** 79.7%

**Q.** What about the activity at 15 µM ([2]; M. musculus, dose 15 µM, Mean of replicates, read-out: Complex I activity, dose-response data) of the same molecule?
**A.** 32.6%

**Q.** And the “Complex I activity, dose-response data” value ([2]; M. musculus, dose 15 µM, individual replicates (Rep))?
**A.** 30.650 and 32.968 and 29.935

**Q.** What about the activity at 15 µM ([2]; M. musculus, dose 15 µM, individual replicates (Rep), read-out: Complex I activity, dose-response data) of the same molecule?
**A.** 37%

**Q.** And the activity at 37.5 µM ([2]; M. musculus, dose 37.5 µM, Mean of replicates, read-out: Complex I activity, dose-response data)?
**A.** 10.6%

**Q.** What about the “Complex I activity, dose-response data” value ([2]; M. musculus, dose 37.5 µM, individual replicates (Rep)) of the same molecule?
**A.** 11.252 and 10.388 and 9.191

**Q.** And the activity at 37.5 µM ([2]; M. musculus, dose 37.5 µM, individual replicates (Rep), read-out: Complex I activity, dose-response data)?
**A.** 11.7%

**Q.** And the activity at 75 µM ([2]; M. musculus, dose 75 µM, Mean of replicates, read-out: Complex I activity, dose-response data)?
**A.** 3.69%

**Q.** And the “Complex I activity, dose-response data” value ([2]; M. musculus, dose 75 µM, individual replicates (Rep))?
**A.** 3.180 and 4.662 and 2.397

**Q.** And the activity at 75 µM ([2]; M. musculus, dose 75 µM, individual replicates (Rep), read-out: Complex I activity, dose-response data)?
**A.** 4.5%

**Q.** What about the IC50 ([2]; heart mitochondria) of the same molecule?
**A.** 9.52 µM
